Source: patent US20220056023A1, “PREPARATION AND APPLICATION OF CLASS OF N-CONTAINING HETEROCYCLIC COMPOUNDS HAVING IMMUNOREGULATORY FUNCTION” (SHANGHAI ENNOVABIO PHARMACEUTICALS CO., LTD., priority 2018, published 2022)

Molecular target: T1, PD-1/PD-L1 (Homo sapiens, UniProt Q9NZQ7)
T1 construct: purchased Cisbio 63ADK000CPDEC
Assay: PD-1/PD-L1 homogeneous time-resolved fluorescence (HTRF) binding assay
Conditions: Tag 1-PD-L1 / Tag 2-PD-1, Cisbio kit
Description: The PD-1/PD-L1 homogeneous time-resolved fluorescence method is used to detect the binding ability of the compound with PD-L1.
PD-1/PD-L1 binding assay kit (Cisbio, Cat #63ADK000CPDEC) was chosen, which contains two proteins Tag 1-PD-L1 and Tag 2-PD-1, and two antibodies Anti-Tag1-Eu^3+ and Anti-Tag2-XL 665. The principle of detection was: Anti-tag1-Eu^3+ was used as the donor of HTRF, and Anti-Tag2-XL 665 was used as the acceptor of HTRF. When Tag 1-PD-L1 interacts with Tag 2-PD-1, the added HTRF donor and the acceptor are close to each other. After the donor has received the excitation energy, part of the energy was transferred to the acceptor, thus generating 665 nm emission light. […] The inhibitory effect of the compound can be determined by comparing the ratio of 665 nm/620 nm. Tag 1-PD-L1 was diluted with Diluent buffer (cat #62DLBDDF) to a working concentration of 10 nM, Tag 2-PD-1 was diluted with Diluent buffer to a working concentration of 500 nM, Anti-Tag1-Eu^3+ was diluted with detection buffer (cat #62DB1FDG) at a ratio of 1:100, Anti-Tag2-XL 665 was diluted with detection buffer at a ratio of 1:20, and the compound to be detected was diluted with diluent buffer to a final concentration of 2×. Compound (2 μL) was added to each well of a 384-well plate, then Tag 1-PD-L1 (4 μL) and Tag 2-PD-1 (4 μL) were added successively. The mixture was incubated at room temperature for 15 minutes. Then Anti-Tag1-Eu^3+ (5 μL) and Anti-Tag2-XL 665 (5 μL) were added, and the mixture was incubated overnight at room temperature. BioTek Synergy™ Neo2 multifunctional microplate reader was used to detect so as to provide the 665 nm/620 nm ratio. PrismGraphd 5.02 was used to fit the IC50 curve.

T1 sequence (Q9NZQ7 19-238 limits assumed): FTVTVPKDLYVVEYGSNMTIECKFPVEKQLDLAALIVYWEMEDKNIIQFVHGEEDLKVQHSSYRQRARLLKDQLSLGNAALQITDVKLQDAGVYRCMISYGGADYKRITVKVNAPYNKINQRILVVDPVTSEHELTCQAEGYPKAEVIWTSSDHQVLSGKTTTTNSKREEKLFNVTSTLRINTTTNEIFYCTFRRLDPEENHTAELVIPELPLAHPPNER

Q: `COc1cc(CNCCO)cc2c1CN(c1cccc(-c3ccccc3)c1Cl)C2` [Compound 10, 2-(((2-(2-Chloro-[1,1′-biphenyl]-3-yl)-7-methoxyisoindolin-5-yl)methyl)amino)ethane-1-ol] was tested. Which IC50 did it give?
A: The IC50 was < 100 nM.

Q: For `COc1nc(CN2CCCC[C@H]2C(=O)O)nc2c1CN(c1cccc(-c3ccccc3)c1Cl)C2` [Compound 6, (S)-1-((6-(2-Chloro-[1,1′-biphenyl]-3-yl)-4-methoxy-6,7-dihydro-5H-pyrrolo[3,4-d)pyrimidin-2-yl)methyl)piperidine-2-carboxylic acid], which IC50 is on record?
A: The IC50 was < 100 nM.

Q: How did the IC50 turn out when `COc1nc(CNCCO)nc2c1CN(c1cccc(-c3ccccc3)c1Cl)C2` [Compound 5, 2-(((6-(2-Chloro-[1,1′-biphenyl]-3-yl)-4-methoxy-6,7-dihydro-5H-pyrrolo[3,4-d)pyrimidin-2-yl)methyl)amino)ethane-1-ol] was run?
A: The IC50 was < 100 nM.

Q: How did the IC50 turn out when `OCCNCc1cnc2nn(-c3cccc(-c4ccccc4)c3Cl)cc2c1` [Compound 1, 2-(((2-(2-Chloro-[1,1′-biphenyl]-3-yl)-2H-pyrazolo[3,4-b]pyridin-5-yl)methyl)amino) ethane-1-ol] was run?
A: Its IC50 is 100 to 1000 nM.

Q: Which IC50 does the source give for `Cc1c(-c2ccccc2)cccc1-n1cc2cc(CNCCO)cc(C#N)c2n1` [Compound 9, (((2-Hydroxyethyl)amino)methyl)-2-(2-methyl-[1,1′-biphenyl]-3-yl)-2H-indazole-7-carbonitrile] here?
A: Its IC50 is 100 to 1000 nM.
